{"source": "paper PMC3785365", "about": "(Clinical cancer research : an official journal of the …, 2011)", "key": {"[1]": {"tested_on": "phosphorylation of S6 and 4E-BP1", "assay": "Western blot of mTOR signaling", "type": "cell-based, human", "details": "glioma cells"}, "[2]": {"target": "KDR (Homo sapiens, UniProt P35968)", "sequence (P35968 20-1356, species assumed)": "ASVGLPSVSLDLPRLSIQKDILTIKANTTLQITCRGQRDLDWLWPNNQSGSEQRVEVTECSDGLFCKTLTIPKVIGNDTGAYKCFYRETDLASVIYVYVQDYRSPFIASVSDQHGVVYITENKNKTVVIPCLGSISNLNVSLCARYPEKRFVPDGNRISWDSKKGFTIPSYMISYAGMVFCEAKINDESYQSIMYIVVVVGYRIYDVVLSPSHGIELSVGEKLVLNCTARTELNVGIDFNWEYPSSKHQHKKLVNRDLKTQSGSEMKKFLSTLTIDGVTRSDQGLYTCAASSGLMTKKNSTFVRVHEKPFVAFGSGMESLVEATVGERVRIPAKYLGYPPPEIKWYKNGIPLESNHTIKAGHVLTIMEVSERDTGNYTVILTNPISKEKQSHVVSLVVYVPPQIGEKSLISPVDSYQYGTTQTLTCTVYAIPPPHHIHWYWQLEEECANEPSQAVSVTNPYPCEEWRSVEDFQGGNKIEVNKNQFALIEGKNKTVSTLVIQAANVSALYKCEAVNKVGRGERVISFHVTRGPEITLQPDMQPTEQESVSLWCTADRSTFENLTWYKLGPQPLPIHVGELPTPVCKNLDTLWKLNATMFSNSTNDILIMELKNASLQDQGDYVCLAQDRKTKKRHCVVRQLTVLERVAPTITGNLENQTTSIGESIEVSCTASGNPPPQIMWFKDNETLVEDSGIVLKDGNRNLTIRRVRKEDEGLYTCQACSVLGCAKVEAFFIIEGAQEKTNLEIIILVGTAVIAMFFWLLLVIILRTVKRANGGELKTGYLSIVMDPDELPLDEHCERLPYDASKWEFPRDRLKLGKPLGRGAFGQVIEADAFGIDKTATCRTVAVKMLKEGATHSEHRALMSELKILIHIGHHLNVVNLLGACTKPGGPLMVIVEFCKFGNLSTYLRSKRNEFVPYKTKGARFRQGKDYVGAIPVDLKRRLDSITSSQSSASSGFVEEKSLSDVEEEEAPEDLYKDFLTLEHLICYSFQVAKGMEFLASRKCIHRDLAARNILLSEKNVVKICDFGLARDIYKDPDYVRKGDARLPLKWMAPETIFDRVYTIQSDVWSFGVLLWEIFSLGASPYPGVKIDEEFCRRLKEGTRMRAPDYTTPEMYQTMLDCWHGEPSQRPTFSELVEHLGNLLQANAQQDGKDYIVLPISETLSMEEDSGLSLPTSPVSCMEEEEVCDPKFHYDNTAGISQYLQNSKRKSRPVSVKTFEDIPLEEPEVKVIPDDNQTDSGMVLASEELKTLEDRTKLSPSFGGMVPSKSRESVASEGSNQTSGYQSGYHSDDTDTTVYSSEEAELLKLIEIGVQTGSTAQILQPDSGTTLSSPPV", "assay": "Biochemical kinase assay, KDR"}, "[3]": {"target": "T1, PDK1 (Homo sapiens, UniProt O15530)", "T1 sequence (O15530 1-556)": "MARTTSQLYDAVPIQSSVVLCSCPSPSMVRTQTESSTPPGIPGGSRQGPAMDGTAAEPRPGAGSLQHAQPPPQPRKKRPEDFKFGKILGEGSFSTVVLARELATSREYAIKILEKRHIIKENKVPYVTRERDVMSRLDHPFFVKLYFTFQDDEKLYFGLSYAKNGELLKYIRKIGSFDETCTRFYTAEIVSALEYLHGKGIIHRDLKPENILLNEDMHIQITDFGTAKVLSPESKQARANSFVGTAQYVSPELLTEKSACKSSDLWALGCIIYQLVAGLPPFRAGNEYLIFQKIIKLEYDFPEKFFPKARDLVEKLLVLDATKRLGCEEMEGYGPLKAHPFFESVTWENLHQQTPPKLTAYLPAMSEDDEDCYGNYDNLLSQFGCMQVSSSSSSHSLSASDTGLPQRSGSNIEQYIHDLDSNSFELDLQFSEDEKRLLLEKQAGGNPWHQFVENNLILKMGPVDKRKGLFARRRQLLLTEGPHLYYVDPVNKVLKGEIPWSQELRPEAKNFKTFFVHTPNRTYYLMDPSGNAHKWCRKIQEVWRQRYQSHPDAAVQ", "assay": "Biochemical kinase assay, PDK1"}, "[4]": {"target": "c-Met (Homo sapiens, UniProt P08581)", "sequence (P08581 25-1390)": "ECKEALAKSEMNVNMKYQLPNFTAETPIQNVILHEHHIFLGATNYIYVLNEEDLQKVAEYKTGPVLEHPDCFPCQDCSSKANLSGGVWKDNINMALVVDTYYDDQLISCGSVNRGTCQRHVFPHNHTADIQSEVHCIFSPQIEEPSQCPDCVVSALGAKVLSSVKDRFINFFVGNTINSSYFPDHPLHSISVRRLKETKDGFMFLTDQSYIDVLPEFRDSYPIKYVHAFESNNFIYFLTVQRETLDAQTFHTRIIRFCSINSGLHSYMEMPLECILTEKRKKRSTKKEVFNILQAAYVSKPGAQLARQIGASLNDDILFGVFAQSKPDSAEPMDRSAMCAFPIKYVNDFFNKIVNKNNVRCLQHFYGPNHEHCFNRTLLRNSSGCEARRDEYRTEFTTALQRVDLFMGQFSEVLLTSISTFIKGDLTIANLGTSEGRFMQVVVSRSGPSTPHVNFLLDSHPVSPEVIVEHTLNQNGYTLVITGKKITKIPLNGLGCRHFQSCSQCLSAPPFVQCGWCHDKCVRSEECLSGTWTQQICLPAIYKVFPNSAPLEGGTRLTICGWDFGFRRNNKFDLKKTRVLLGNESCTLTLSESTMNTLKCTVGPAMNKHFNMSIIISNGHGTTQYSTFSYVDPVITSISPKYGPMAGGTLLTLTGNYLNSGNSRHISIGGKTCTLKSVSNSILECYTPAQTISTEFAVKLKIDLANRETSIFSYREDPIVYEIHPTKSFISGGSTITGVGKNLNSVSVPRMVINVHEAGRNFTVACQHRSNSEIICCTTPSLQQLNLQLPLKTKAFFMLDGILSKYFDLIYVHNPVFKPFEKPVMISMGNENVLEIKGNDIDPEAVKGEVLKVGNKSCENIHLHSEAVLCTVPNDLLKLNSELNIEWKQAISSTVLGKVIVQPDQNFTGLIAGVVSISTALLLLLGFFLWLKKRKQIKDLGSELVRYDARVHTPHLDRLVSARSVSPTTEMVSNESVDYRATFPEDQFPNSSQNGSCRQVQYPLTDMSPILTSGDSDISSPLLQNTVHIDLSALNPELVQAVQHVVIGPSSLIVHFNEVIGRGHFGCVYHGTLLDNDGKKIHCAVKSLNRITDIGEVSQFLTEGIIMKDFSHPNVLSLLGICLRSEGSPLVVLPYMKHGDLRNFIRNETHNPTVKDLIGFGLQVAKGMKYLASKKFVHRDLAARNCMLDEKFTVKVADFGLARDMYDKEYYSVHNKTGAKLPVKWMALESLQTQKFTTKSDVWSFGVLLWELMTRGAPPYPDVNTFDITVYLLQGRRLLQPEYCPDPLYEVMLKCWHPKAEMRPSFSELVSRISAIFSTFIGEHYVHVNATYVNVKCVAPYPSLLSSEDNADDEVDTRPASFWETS", "assay": "Biochemical kinase assay, c-Met"}, "[5]": {"target": "FGFR3 (Homo sapiens, UniProt P22607)", "sequence (P22607 23-806, species assumed)": "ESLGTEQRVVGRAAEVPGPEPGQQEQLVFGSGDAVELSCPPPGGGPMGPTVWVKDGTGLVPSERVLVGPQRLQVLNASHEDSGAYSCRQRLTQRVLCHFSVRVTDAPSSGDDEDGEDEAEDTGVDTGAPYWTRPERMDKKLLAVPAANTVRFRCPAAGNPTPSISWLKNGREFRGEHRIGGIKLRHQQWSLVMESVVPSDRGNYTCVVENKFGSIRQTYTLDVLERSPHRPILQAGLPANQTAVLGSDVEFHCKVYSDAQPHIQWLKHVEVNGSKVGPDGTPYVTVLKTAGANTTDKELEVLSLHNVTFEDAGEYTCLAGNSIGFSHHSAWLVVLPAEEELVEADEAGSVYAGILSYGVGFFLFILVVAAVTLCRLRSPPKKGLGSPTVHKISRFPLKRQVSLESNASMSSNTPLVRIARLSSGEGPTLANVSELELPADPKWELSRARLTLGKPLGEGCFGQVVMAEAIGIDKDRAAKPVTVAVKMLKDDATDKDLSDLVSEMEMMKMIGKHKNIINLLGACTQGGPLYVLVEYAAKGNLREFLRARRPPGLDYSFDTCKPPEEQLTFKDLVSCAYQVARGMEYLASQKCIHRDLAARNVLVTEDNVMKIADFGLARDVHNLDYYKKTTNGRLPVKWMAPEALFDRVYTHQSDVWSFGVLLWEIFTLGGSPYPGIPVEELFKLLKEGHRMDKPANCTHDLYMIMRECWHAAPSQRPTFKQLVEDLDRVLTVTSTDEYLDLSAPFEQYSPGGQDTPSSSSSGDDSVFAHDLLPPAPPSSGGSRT", "assay": "Biochemical kinase assay, FGFR3"}, "[6]": {"target": "Tek (Homo sapiens, UniProt Q02763)", "sequence (Q02763 23-1124, species assumed)": "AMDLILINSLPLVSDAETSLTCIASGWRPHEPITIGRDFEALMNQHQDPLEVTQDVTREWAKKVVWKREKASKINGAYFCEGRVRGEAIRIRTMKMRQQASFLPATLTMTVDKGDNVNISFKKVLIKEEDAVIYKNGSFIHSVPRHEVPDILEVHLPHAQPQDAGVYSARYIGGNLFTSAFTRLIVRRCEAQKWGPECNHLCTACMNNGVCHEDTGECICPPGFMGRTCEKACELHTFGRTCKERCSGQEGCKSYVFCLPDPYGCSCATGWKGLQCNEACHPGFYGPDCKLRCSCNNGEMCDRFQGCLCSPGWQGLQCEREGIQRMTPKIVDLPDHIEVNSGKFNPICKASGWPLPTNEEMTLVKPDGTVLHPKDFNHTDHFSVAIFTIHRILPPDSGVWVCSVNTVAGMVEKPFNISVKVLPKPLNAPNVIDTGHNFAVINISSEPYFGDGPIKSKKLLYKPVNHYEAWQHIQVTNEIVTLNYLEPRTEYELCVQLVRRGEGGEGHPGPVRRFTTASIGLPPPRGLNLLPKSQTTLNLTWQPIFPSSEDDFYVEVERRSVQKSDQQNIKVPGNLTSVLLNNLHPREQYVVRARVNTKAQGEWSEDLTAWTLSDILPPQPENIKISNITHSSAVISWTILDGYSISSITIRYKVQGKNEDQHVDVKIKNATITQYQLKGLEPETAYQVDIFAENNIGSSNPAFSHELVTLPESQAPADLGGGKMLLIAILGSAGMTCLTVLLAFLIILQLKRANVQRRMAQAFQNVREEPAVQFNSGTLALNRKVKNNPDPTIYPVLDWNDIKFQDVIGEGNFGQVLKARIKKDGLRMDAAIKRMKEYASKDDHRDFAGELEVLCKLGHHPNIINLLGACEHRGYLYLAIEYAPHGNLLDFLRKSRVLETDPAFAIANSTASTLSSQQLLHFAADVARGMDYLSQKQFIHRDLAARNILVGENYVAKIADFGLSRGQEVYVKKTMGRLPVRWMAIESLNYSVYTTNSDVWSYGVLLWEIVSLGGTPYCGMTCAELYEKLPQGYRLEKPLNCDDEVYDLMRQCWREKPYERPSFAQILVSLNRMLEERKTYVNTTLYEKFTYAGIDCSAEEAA", "assay": "Biochemical kinase assay, Tek"}, "[7]": {"tested_on": "U87 cells", "assay": "Mitotic index", "type": "cell-based, human", "details": "U87 (p53-wt); 2 μm, 72 hours; control cells 1% to 3%"}, "[8]": {"tested_on": "D54 cells", "assay": "Mitotic index", "type": "cell-based, human", "details": "D54 (p53-wt); 2 μm, 72 hours; control cells 1% to 3%"}, "[9]": {"tested_on": "U343 cells", "assay": "Mitotic index", "type": "cell-based, human", "details": "U343 (p53-wt); 2 μm, 72 hours; control cells 1% to 3%"}, "[10]": {"tested_on": "U251 cells", "assay": "Mitotic index", "type": "cell-based, human", "details": "U251 (p53-mutant/deleted); 2 μm, 72 hours; control cells 1% to 3%"}, "[11]": {"tested_on": "LN18 cells", "assay": "Mitotic index", "type": "cell-based, human", "details": "LN18 (p53-mutant/deleted); 2 μm, 72 hours; control cells 1% to 3%"}, "[12]": {"tested_on": "LN229 cells", "assay": "Mitotic index", "type": "cell-based, human", "details": "LN229 (p53-mutant/deleted); 2 μm, 72 hours; control cells 1% to 3%"}, "[13]": {"tested_on": "U87 intracranial xenografts", "assay": "Intracranial U87 glioma xenograft survival model", "type": "in vivo", "details": "nude mice, control 26 days"}, "[14]": {"assay": "Tolerability in treated tumor-bearing mice", "type": "in vivo", "details": "20 or 40 mg/kg oral"}, "[15]": {"tested_on": "glioma cell lines", "assay": "Annexin V apoptosis assay by flow cytometry", "details": "72 hours"}, "[16]": {"tested_on": "phosphorylation of Akt", "assay": "Inhibition of Akt phosphorylation by immunoblot in U87MG and LN18 cells", "details": "Homo sapiens, read-out: IC50 for inhibiting phosphorylation of Akt"}, "[17]": {"target": "P110α (Homo sapiens, UniProt P42336)", "details": "cited from earlier work"}, "[18]": {"tested_on": "p110γ", "details": "cited from earlier work"}, "[19]": {"tested_on": "p110δ", "details": "cited from earlier work"}}}
{"molecule": "Cn1c(=O)n(-c2ccc(C(C)(C)C#N)cc2)c2c3cc(-c4cnc5ccccc5c4)ccc3ncc21", "note": "[NVP-BEZ235, reference compound]", "values": [{"measurement": "effect on phosphorylation of S6 and 4E-BP1", "setting": "[1]", "result": "nearly complete dephosphorylation of both S6 and 4E-BP1"}]}
{"molecule": "Nc1cc(C(F)(F)F)c(-c2cc(N3CCOCC3)nc(N3CCOCC3)n2)cn1", "note": "[NVP-BKM120]", "values": [{"measurement": "IC50", "setting": "[2]", "result": "> 10", "unit": "µM"}, {"measurement": "IC50", "setting": "[3]", "result": "> 10", "unit": "µM"}, {"measurement": "IC50", "setting": "[4]", "result": "> 10", "unit": "µM"}, {"measurement": "IC50", "setting": "[5]", "result": "> 10", "unit": "µM"}, {"measurement": "IC50", "setting": "[6]", "result": "> 10", "unit": "µM"}, {"measurement": "cells in mitosis (phospho-H3 positive) after treatment", "setting": "[7]", "result": 2.6, "unit": "%"}, {"measurement": "cells in mitosis (phospho-H3 positive) after treatment", "setting": "[8]", "result": 2.8, "unit": "%"}, {"measurement": "cells in mitosis (phospho-H3 positive) after treatment", "setting": "[9]", "result": 3, "unit": "%"}, {"measurement": "cells in mitosis (phospho-H3 positive) after treatment", "setting": "[10]", "result": 12.4, "unit": "%"}, {"measurement": "cells in mitosis (phospho-H3 positive) after treatment", "setting": "[11]", "result": 7.3, "unit": "%"}, {"measurement": "cells in mitosis (phospho-H3 positive) after treatment", "setting": "[12]", "result": 7.9, "unit": "%"}, {"measurement": "median survival time", "setting": "[13]; 20 mg/kg oral", "result": 38, "unit": "days"}, {"measurement": "median survival time", "setting": "[13]; 40 mg/kg oral", "result": 48, "unit": "days"}, {"measurement": "adverse effects with respect to body weight, water intake, and general activity", "setting": "[14]", "result": "no obvious signs of adverse effects"}, {"measurement": "effect on phosphorylation of S6 and 4E-BP1", "setting": "[1]", "result": "minor dephosphorylation only of the S6 protein"}, {"measurement": "change of the percentage of apoptosis (Annexin V)", "setting": "[15]; p53-mutant/deleted cell lines", "result": 3.98, "unit": "%"}, {"measurement": "change of the percentage of apoptosis (Annexin V)", "setting": "[15]; p53-wt cell lines", "result": 14.52, "unit": "%"}, {"measurement": "IC50", "setting": "[16]", "result": "0.5 to 1", "unit": "µM"}]}
{"molecule": "C=CCN(/C=C1/C(=O)O[C@H](COC)[C@@]2(C)C1=C(O)C(=O)C1=C2[C@H](OC(C)=O)C[C@]2(C)C(=O)CC[C@@H]12)CC=C", "note": "[PX-866]", "values": [{"measurement": "IC50", "setting": "[17]", "result": "low nanomolar range"}, {"measurement": "IC50", "setting": "[18]", "result": "low nanomolar range"}, {"measurement": "IC50", "setting": "[19]", "result": "low nanomolar range"}]}
